# According to the supplement of paper PMC4932681:
# Assays:
# [1] = test system: BT-474 Tam1; test: drug sensitivity score (DSS) (DSS (dimensionless)); higher = more sensitive; extreme values may be limits of the assay; details: 4-OH-tamoxifen in medium 1 µM; 72 h
# Procedure: (§1)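 FIMM FO2B library drugs were tested at 5 concentrations (10,000-fold range) for 72 h, with CellTiter-Glo viability normalised to DMSO and benzethonium chloride controls. The Drug Sensitivity Score (DSS) is computed from the fitted logistic dose-response curve (area-based; 0 = inactive). Resistant lines and the 'in 1µM tamoxifen' arms were tested in 1 µM 4-OH-tamoxifen.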
# [2] = test system: BT-474 Tam2; test: as above; details: 4-OH-tamoxifen in medium 1 µM; 72 h
# Procedure: as §1
# [3] = test system: BT-474; test: as above; details: 72 h
# Procedure: as §1
# [4] = test system: MCF-7 Tam1; test: as above; details: 4-OH-tamoxifen in medium 1 µM; 72 h
# Procedure: as §1
# [5] = test system: MCF-7; test: as above; details: 72 h
# Procedure: as §1
# [6] = test system: T-47D Tam1; test: as above; details: 4-OH-tamoxifen in medium 1 µM; 72 h
# Procedure: as §1
# [7] = test system: T-47D Tam2; test: as above; details: 4-OH-tamoxifen in medium 1 µM; 72 h
# Procedure: as §1
# [8] = test system: T-47D; test: as above; details: 72 h
# Procedure: as §1
# [9] = test system: ZR-75-1 Tam1; test: as above; details: 4-OH-tamoxifen in medium 1 µM; 72 h
# Procedure: as §1
# [10] = test system: ZR-75-1 Tam2; test: as above; details: 4-OH-tamoxifen in medium 1 µM; 72 h
# Procedure: as §1
# [11] = test system: ZR-75-1; test: as above; details: 72 h
# Procedure: as §1
# [12] = test system: BT-474 Tam1; test: relative IC50 (midpoint of fitted logistic curve, plateau may be below 50% inhibition; CellTiter-Glo viability); higher = less potent; details: 4-OH-tamoxifen in medium 1 µM; 72 h
# Procedure: (§2)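 FIMM FO2B library drugs were plated at 5 concentrations spanning a 10,000-fold range in 384-well plates. Cells were incubated for 72 h at 37 °C and viability was read by CellTiter-Glo, normalised to DMSO (0% inhibition) and 100 µM benzethonium chloride (100% inhibition). IC50 values come from logistic dose-response fits (Breeze pipeline). Tamoxifen-resistant lines and the 'in 1µM tamoxifen' parental arms were tested in medium with 1 µM 4-OH-tamoxifen.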
# [13] = test system: BT-474 Tam2; test: as above; details: 4-OH-tamoxifen in medium 1 µM; 72 h
# Procedure: as §2
# [14] = test system: BT-474; test: as above; details: 72 h
# Procedure: as §2
# [15] = test system: MCF-7 Tam1; test: as above; details: 4-OH-tamoxifen in medium 1 µM; 72 h
# Procedure: as §2
# [16] = test system: MCF-7; test: as above; details: 72 h
# Procedure: as §2
# [17] = test system: T-47D Tam1; test: as above; details: 4-OH-tamoxifen in medium 1 µM; 72 h
# Procedure: as §2
# [18] = test system: T-47D; test: as above; details: 72 h
# Procedure: as §2
# [19] = test system: ZR-75-1 Tam1; test: as above; details: 4-OH-tamoxifen in medium 1 µM; 72 h
# Procedure: as §2
# [20] = test system: ZR-75-1 Tam2; test: as above; details: 4-OH-tamoxifen in medium 1 µM; 72 h
# Procedure: as §2
# [21] = test system: ZR-75-1; test: as above; details: 72 h
# Procedure: as §2
SMILES,drug sensitivity score [1],drug sensitivity score [2],drug sensitivity score ([3]; 4-OH-tamoxifen in medium 0 µM),drug sensitivity score ([3]; 4-OH-tamoxifen in medium 1 µM),drug sensitivity score [4],drug sensitivity score ([5]; 4-OH-tamoxifen in medium 0 µM),drug sensitivity score ([5]; 4-OH-tamoxifen in medium 1 µM),drug sensitivity score [6],drug sensitivity score [7],drug sensitivity score ([8]; 4-OH-tamoxifen in medium 0 µM),drug sensitivity score ([8]; 4-OH-tamoxifen in medium 1 µM),drug sensitivity score [9],drug sensitivity score [10],drug sensitivity score ([11]; 4-OH-tamoxifen in medium 0 µM),drug sensitivity score ([11]; 4-OH-tamoxifen in medium 1 µM),relative IC50 [12],relative IC50 [13],relative IC50 ([14]; 4-OH-tamoxifen in medium 0 µM),relative IC50 ([14]; 4-OH-tamoxifen in medium 1 µM),relative IC50 [15],relative IC50 ([16]; 4-OH-tamoxifen in medium 0 µM),relative IC50 ([16]; 4-OH-tamoxifen in medium 1 µM),relative IC50 [17],relative IC50 ([18]; 4-OH-tamoxifen in medium 0 µM),relative IC50 ([18]; 4-OH-tamoxifen in medium 1 µM),relative IC50 [19],relative IC50 [20],relative IC50 ([21]; 4-OH-tamoxifen in medium 0 µM),relative IC50 ([21]; 4-OH-tamoxifen in medium 1 µM)
CN(N=O)C(=O)N[C@@H](C=O)[C@@H](O)[C@H](O)[C@H](O)CO [Streptozocin],0,0,0,0,0,0,0,0,0,0,0,0,0,0,0,> 10 µM,> 10 µM,> 10 µM,> 10 µM,> 10 µM,> 10 µM,> 10 µM,> 10 µM,> 10 µM,> 10 µM,> 10 µM,> 10 µM,> 10 µM,> 10 µM
"O=P1(N(CCCl)CCCl)NCCCO1 (centres undefined) [Clafen (Cyclophosphamide, Endoxan)]",0,0,0,0,0,0,0.034,0,0.114,0,0,0,0,0,0,> 40 µM,> 40 µM,> 40 µM,> 40 µM,> 40 µM,> 40 µM,–,> 40 µM,> 40 µM,> 40 µM,> 40 µM,> 40 µM,> 40 µM,> 40 µM
CCCC(CCC)C(=O)O [Valproic acid],0,0,0,0,0,0,0,0,1.73,0,0.0101,0,0,0,0,> 10 µM,> 10 µM,> 10 µM,> 10 µM,> 10 µM,> 10 µM,> 10 µM,> 10 µM,> 10 µM,–,> 10 µM,> 10 µM,> 10 µM,> 10 µM
CC(C)C[C@H](NC(=O)[C@@H](COC(C)(C)C)NC(=O)[C@H](Cc1ccc(O)cc1)NC(=O)[C@H](CO)NC(=O)[C@H](Cc1c[nH]c2ccccc12)NC(=O)[C@H](Cc1cnc[nH]1)NC(=O)[C@@H]1CCC(=O)N1)C(=O)N[C@@H](CCCNC(=N)N)C(=O)N1CCC[C@H]1C(=O)NNC(N)=O [Goserelin acetate],0,0,0,0,0,0,0,0,0.105,0,0,0,0,0,0,> 10 µM,> 10 µM,> 10 µM,> 10 µM,> 10 µM,> 10 µM,> 10 µM,> 10 µM,> 10 µM,> 10 µM,> 10 µM,> 10 µM,> 10 µM,> 10 µM
CCCCC/C=C/C=C1/C(=O)C=C[C@@H]1C/C=C\CCCC(=O)O [15D-PGJ2],0,0,0,0,0,0,0,0,0.598,0,0,0,0,0,0,> 0.8 µM,> 0.8 µM,> 0.8 µM,> 0.8 µM,> 0.8 µM,> 0.8 µM,> 0.8 µM,> 0.8 µM,> 0.8 µM,> 0.8 µM,> 0.8 µM,> 0.8 µM,> 0.8 µM,> 0.8 µM
CCCS(=O)(=O)Nc1ccc(F)c(C(=O)c2c[nH]c3ncc(-c4ccc(Cl)cc4)cc23)c1F [Vemurafenib (PLX4032)],0,0,0,0.086,0,0,0,0,1.67,0,0,0,0,0,0,> 10 µM,> 10 µM,> 10 µM,–,> 10 µM,> 10 µM,> 10 µM,> 10 µM,> 10 µM,> 10 µM,> 10 µM,> 10 µM,> 10 µM,–
CC[C@@]1(O)C(=O)OCc2c1cc1n(c2=O)Cc2cc3c(CN(C)C)c(O)ccc3nc2-1 [Topotecan],0,0,0,0,0,0.567,2.53,5.31,1.16,7.46,0,3.45,4.55,5.48,3.54,> 1 µM,> 1 µM,> 1 µM,> 1 µM,> 1 µM,–,–,0.1 µM,0.0779 µM,> 1 µM,0.156 µM,0.136 µM,0.0952 µM,0.13 µM
C=C1C[C@@H]2[C@H](CC[C@]3(C)C(=O)CC[C@@H]23)[C@@]2(C)C=CC(=O)C=C12 [Exemestane],0,0,0,0,0,1.3,0,0,0.965,0,0,0,0,0,0,> 10 µM,> 10 µM,> 10 µM,> 10 µM,> 10 µM,–,–,> 10 µM,> 10 µM,> 10 µM,> 10 µM,> 10 µM,> 10 µM,> 10 µM
